The text below walks through data of PMC11352409, “Subtype-Specific Ligand Binding and Activation Gating in Homomeric and Heteromeric P2X Receptors” (Biomolecules, 2024).

The test concerns the target T1, human P2X2/3 receptors (Homo sapiens, UniProt P56373+Q9UBL9).
T1 construct: expressed in transfected cells
T1 sequence (Q9UBL9 1-404 isoform Q9UBL9-2): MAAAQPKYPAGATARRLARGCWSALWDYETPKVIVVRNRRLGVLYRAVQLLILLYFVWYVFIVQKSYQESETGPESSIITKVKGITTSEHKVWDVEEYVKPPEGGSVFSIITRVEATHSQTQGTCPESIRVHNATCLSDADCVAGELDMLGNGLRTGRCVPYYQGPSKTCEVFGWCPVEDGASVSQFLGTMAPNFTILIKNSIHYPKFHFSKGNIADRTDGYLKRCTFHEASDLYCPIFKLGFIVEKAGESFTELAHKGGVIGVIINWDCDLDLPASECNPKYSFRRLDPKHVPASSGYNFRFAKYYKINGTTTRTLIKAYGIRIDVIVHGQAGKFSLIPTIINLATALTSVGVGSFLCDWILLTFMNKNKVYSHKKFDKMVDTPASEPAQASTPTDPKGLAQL
T1 sequence (P56373 1-397): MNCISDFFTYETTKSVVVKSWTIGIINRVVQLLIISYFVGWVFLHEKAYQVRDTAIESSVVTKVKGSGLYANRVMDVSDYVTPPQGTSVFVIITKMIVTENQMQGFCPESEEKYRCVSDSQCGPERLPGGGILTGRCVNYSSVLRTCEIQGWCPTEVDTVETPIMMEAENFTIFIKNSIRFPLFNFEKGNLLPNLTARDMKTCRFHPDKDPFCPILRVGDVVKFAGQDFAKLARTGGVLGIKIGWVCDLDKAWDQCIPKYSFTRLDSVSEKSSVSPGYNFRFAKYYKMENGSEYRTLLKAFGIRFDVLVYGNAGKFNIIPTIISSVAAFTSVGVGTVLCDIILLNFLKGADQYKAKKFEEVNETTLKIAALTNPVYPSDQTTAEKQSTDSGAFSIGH
Briefly: Confocal binding versus activation of fATP at hP2X2/3 in HEK293 cells. The settings on record: hP2X2/3, activation rescaled to value at maximal concentration. The protocol: For the detection of ligand binding, the cells were incubated with the fluorescent ATP derivatives in chambered coverslips or 96-well plates with cover-slip bottoms. The surface was coated with 0.1 mg/mL of poly-L-lysine for 12 h and washed twice with PBS before seeding the cells at […] density. The cells were suspended 24 h after induction and allowed to settle for two hours before being utilised for the measurements. The solutions were freshly prepared before each experiment. The bulk solution was counter-stained with the red fluorescence dye Dy647. Each confocal voxel covering the cell membrane contained both the signal from the bound ligand and the signal from ligands in the bulk solution. This additional signal, e.g., the fraction of the bulk solution inside a voxel, varied from pixel to pixel and can hardly be described theoretically.
Because the difference in image noise contributed within both the bulk solution and the cells, the cell–bulk interfaces were selected using a Sobel operator [31] and appropriate filters/thresholds on the reference fluorophore signal. Note that only cell–bulk boundaries and not cell–cell boundaries were included in this approach. The method was described in detail previously.
The concentration–binding relationships were normalised to their maximum relative fluorescence intensities at a saturating fATP or α,βMe-fATP concentration. […]

Regarding `COCC[N+]1=C(C=CC=C2N(CCCCCC(=O)NCCCCCCSc3nc(N)c4ncn(C5OC(COP(=O)(O)OP(=O)(O)OP(=O)(O)O)C(O)C5O)c4n3)c3ccc(S(=O)(=O)O)cc3C2(C)C)C(C)(C)c2cc(S(=O)(=O)[O-])ccc21` (stereo not shown) [fATP, 2-[DY-547P1]-AHT-ATP], the “Concentration at which normalised concentration-activation and concentration-binding curves intersect” value is recorded as “approximately 0.5 µM”.
